{"source": "paper PMC11846858", "about": "“Macrocarpal I induces immunogenic cell death and synergizes with immune checkpoint inhibition by targeting tubulin and PARP1 in colorectal cancer” (Cell Death Discovery, 2025)", "molecular_target": "T1, Tubulin Beta 2B Class IIb (TUBB2B) (Homo sapiens, UniProt Q9BVA1)", "T1 construct": "human TUBB2B in pET28a, N-terminal His-tag, expressed in E. coli BL21 (DE3) RIL", "T1 sequence (Q9BVA1 whole entry)": "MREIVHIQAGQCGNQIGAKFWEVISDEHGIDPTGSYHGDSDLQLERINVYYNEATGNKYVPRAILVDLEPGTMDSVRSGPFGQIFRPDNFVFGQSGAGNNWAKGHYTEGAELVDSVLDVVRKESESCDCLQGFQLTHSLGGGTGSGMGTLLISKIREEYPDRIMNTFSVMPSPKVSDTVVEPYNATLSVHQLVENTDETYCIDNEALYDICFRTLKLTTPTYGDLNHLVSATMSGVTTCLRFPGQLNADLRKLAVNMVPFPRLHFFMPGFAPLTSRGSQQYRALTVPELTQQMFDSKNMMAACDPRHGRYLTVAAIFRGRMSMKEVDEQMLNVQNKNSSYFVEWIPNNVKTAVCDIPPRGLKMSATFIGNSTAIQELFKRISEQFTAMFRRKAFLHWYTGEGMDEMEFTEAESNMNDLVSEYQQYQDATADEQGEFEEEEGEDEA", "assay": "ITC with purified His-tagged TUBB2B; supported by DARTS in SW620 and DLD1 lysates", "type": "binding", "data": [{"smiles": "CC(C)C[C@H](c1c(O)c(C=O)c(O)c(C=O)c1O)[C@@H]1CC[C@@](C)(O)[C@@H]2C[C@H](C(C)(C)O)CC[C@]21C", "note": "[Macrocarpal I]", "values": [{"measurement": "Kd", "value": 1.54, "unit": "µM"}]}]}
